Measurements published in patent US20250215030A1, “STAT MODULATORS AND USES THEREOF” (Recludix Pharma, Inc., priority 2022, published 2025).

Tests used:
pSTAT3 (pY705-STAT3) = molecular target: T1, pSTAT3 (pY705-STAT3) (Homo sapiens, UniProt P40763); assay: MSD-pSTAT-PBMC Assay (pSTAT3, IL-6 stimulated); format: cell-based; settings: PBMC, compound 3 hrs, then 10 ng/mL IL-6 for 10 min; MSD pY705-STAT3; read-out: pSTAT3
T1 construct: host or cells: cryopreserved PBMC
How it was run: (§1)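 Human PBMCs (50,000 cells/well for STAT3, 25,000 for STAT6) treated with compound 3 h, then stimulated 10 min with 10 ng/mL IL-6 or 1 ng/mL IL-4. Lysate pSTAT3 (pY705) or pSTAT6 (pY641) measured by MSD sandwich electrochemiluminescence. Signal minus unstimulated, normalized to DMSO; IC50 by variable-slope nonlinear regression.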

pSTAT6 (pY641-STAT6) = molecular target: T2, pSTAT6 (pY641-STAT6) (Homo sapiens, UniProt P42226); assay: MSD-pSTAT-PBMC Assay (pSTAT6, IL-4 stimulated); format: cell-based; settings: compound 3 hrs, then 1 ng/mL IL-4 for 10 min
T2 construct: host or cells: cryopreserved PBMC
T2 sequence (P42226 1-847): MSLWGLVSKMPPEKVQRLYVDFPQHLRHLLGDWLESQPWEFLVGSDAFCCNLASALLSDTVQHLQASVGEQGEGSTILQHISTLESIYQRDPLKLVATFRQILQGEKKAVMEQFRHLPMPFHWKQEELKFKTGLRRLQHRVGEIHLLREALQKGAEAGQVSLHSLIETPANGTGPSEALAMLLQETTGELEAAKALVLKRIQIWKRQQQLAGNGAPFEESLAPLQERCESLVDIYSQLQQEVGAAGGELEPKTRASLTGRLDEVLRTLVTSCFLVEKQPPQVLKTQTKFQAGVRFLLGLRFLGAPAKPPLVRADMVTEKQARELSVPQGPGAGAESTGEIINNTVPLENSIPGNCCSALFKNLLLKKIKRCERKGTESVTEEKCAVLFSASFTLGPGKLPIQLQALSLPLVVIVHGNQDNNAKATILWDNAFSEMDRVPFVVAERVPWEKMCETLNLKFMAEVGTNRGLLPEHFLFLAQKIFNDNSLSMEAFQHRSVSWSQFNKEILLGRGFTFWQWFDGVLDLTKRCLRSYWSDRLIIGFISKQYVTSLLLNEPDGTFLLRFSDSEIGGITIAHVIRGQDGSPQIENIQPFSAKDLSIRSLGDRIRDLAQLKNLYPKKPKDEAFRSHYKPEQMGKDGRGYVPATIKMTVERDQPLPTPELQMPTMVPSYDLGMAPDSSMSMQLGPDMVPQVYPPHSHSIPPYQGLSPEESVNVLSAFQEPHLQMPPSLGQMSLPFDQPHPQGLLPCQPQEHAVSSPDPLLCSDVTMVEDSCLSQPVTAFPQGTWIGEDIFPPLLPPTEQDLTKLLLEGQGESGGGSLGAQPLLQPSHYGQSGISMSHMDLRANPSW
How it was run: as §1

T1 sequence (P40763 whole entry): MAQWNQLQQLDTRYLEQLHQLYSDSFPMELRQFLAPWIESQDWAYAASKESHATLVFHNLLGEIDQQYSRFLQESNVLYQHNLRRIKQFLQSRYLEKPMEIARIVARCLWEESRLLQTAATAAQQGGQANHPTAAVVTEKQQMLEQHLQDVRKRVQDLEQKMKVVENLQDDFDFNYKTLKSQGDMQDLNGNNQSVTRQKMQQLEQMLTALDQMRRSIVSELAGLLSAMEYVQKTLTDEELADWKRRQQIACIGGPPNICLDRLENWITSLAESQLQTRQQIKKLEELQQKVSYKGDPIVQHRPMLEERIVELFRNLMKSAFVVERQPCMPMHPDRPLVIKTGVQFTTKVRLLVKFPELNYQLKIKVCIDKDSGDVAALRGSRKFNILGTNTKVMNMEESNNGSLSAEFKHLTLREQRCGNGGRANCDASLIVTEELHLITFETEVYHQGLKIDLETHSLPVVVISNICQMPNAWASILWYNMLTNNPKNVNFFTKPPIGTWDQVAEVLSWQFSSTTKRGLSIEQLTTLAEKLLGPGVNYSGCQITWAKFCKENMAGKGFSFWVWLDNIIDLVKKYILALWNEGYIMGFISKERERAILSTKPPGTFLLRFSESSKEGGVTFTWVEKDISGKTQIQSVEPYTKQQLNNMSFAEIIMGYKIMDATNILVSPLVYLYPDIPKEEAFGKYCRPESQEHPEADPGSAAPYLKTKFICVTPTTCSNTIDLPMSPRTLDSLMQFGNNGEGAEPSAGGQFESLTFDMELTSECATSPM

Compound	IC50 (pSTAT3 (pY705-STAT3))	IC50 (pSTAT6 (pY641-STAT6))
CC(C)(C)C(=O)OCOP(=O)(OCOC(=O)C(C)(C)C)C(F)(F)c1ccc2sc(C(=O)N[C@H]3C[C@H]4C[C@H]4C[C@H]4CC[C@@H](C(=O)N[C@@H]5CCN(c6cccnc6)C5)N4C3=O)cc2c1 [Compound 213, (((difluoro(2-(((3S,6S,7aR, 8aS,9aR)-5-oxo-3-(((R)-1-(pyridin-3-yl)pyrrolidin-3-yl)carbamoyl)decahydro-1H-cyclopropa[d]pyrrolo[1,2-a]azocin-6-yl)carbamoyl)benzo[b]thiophen-5-yl)methyl)phosphoryl)bis(oxy)) bis(methylene) bis(2,2-dimethyl-propanoate)]	0.1 to 1 µM	> 3 µM
CC(C)(C)C(=O)SCCOP(=O)(OCCSC(=O)C(C)(C)C)C(F)(F)c1ccc2sc(C(=O)N[C@H]3C[C@H]4C[C@H]4C[C@H]4CC[C@@H](C(=O)N5CCN(C6CCOCC6)CC5)N4C3=O)cc2c1 [Compound 220, S,S′-((((difluoro(2-(((3S,6S,7aR, 8aS,9aR)-5-oxo-3-(4-(tetrahydro-2H-pyran-4-yl)piperazine-1-carbonyl)decahydro-1H-cyclopropa[d]pyrrolo[1,2-a]azocin-6-yl)carbamoyl)benzo[b]thiophen-5-yl)methyl)phosphoryl)bis(oxy))bis(ethane-2,1-diyl)) bis(2,2-dimethyl-propanethioate)]	< 0.1 µM	> 3 µM
CC(C)CC(=O)SCCOP(=O)(OCCSC(=O)CC(C)C)C(F)(F)c1ccc2sc(C(=O)N[C@H]3C[C@H]4C[C@H]4C[C@H]4CC[C@@H](C(=O)N5CC(c6cncnc6)C5)N4C3=O)cc2c1 [Compound 222, S,S′-((((difluoro(2-(((3S,6S,7aR, 8aS,9aR)-5-oxo-3-(3-(pyrimidin-5-yl)azetidine-1-carbonyl)decahydro-1H-cyclopropa[d]pyrrolo[1,2-a]azocin-6-yl)carbamoyl)benzo[b]thiophen-5-yl)methyl)phosphoryl)bis(oxy))bis(ethane-2,1-diyl)) bis(3-methylbutane thioate)]	< 0.1 µM	> 3 µM
CC(C)(C)C(=O)SCCOP(=O)(Cc1ccc2sc(C(=O)N[C@H]3C[C@H]4C[C@H]4C[C@H]4CC[C@@H](C(=O)N5CC(c6cccnc6)C5)N4C3=O)cc2c1)OCCSC(=O)C(C)(C)C [Compound 223, S,S′-(((((2-(((3S,6S,7aR, 8aS,9aR)-5-oxo-3-(3-(pyridin-3-yl)azetidine-1-carbonyl)decahydro-1H-cyclopropa[d]pyrrolo[1,2-a]azocin-6-yl)carbamoyl)benzo[b]thiophen-5-yl)methyl)phosphoryl)bis(oxy))bis(ethane-2,1-diyl)) bis(2,2-dimethyl-propanethioate)]	0.1 to 1 µM	> 3 µM
CC(C)CC(=O)SCCOP(=O)(OCCSC(=O)CC(C)C)C(F)(F)c1ccc2sc(C(=O)N[C@H]3C[C@H]4C[C@H]4C[C@H]4CC[C@@H](C(=O)N[C@@H]5CCN(c6cccnc6)C5)N4C3=O)cc2c1 [Compound 224, S,S′-((((difluoro(2-(((3S,6S,7aR, 8aS,9aR)-5-oxo-3-(((R)-1-(pyridin-3-yl)pyrrolidin-3-yl)carbamoyl)decahydro-1H-cyclopropa[d]pyrrolo[1,2-a]azocin-6-yl)carbamoyl)benzo[b]thiophen-5-yl)methyl)phosphoryl)bis(oxy))bis(ethane-2,1-diyl)) bis(3-methylbutane thioate)]	< 0.1 µM	> 3 µM
CC(C)CC(=O)SCCOP(=O)(OCCSC(=O)CC(C)C)C(F)(F)c1ccc2sc(C(=O)N[C@H]3C[C@H]4C[C@H]4C[C@H]4CC[C@@H](C(=O)N5CC(c6ncccn6)C5)N4C3=O)cc2c1 [Compound 225, S,S′-((((difluoro(2-(((3S,6S,7aR, 8aS,9aR)-5-oxo-3-(3-(pyrimidin-2-yl)azetidine-1-carbonyl)decahydro-1H-cyclopropa[d]pyrrolo[1,2-a]azocin-6-yl)carbamoyl)benzo[b]thiophen-5-yl)methyl)phosphoryl)bis(oxy))bis(ethane-2,1-diyl)) bis(3-methylbutane thioate)]	< 0.1 µM	1 to 3 µM
CC(C)(C)C(=O)SCCOP(=O)(OCCSC(=O)C(C)(C)C)C(F)(F)c1ccc2sc(C(=O)N[C@H]3C[C@@H]4C[C@@H]4C[C@H]4CC[C@@H](C(=O)N5CC(F)(c6ccccc6)C5)N4C3=O)cc2c1 [Compound 228, S,S′-((((difluoro(2-(((3S,6S,7aS, 8aR,9aR)-3-(3-fluoro-3-phenylazetidine-1-carbonyl)-5-oxodecahydro-1H-cyclopropa[d]pyrrolo[1,2-a]azocin-6-yl)carbamoyl)benzo[b]thiophen-5-yl)methyl)phosphoryl)bis(oxy))bis(ethane-2,1-diyl)) bis(2,2-dimethyl-propanethioate)]	0.1 to 1 µM	> 3 µM

Continued, values first:

IC50 (pSTAT3 (pY705-STAT3))	IC50 (pSTAT6 (pY641-STAT6))	Compound
< 0.1 µM	> 3 µM	CC(C)(C)C(=O)OCOP(=O)(OCOC(=O)C(C)(C)C)C(F)(F)c1ccc2sc(C(=O)N[C@H]3C[C@@H]4C[C@@H]4C[C@H]4CC[C@@H](C(=O)N[C@@H]5CCN(c6cccnc6)C5)N4C3=O)cc2c1 [Compound 212, (((difluoro(2-(((3S,6S,7aS, 8aR,9aR)-5-oxo-3-(((R)-1-(pyridin-3-yl)pyrrolidin-3-yl)carbamoyl)decahydro-1H-cyclopropa[d]pyrrolo[1,2-a]azocin-6-yl)carbamoyl)benzo[b]thiophen-5-yl)methyl)phosphoryl)bis(oxy)) bis(methylene) bis(2,2-dimethyl-propanoate)]
< 0.1 µM	> 3 µM	CC(C)(C)C(=O)OCOP(=O)(OCOC(=O)C(C)(C)C)C(F)(F)c1ccc2sc(C(=O)N[C@H]3C[C@H]4C[C@H]4C[C@H]4CC[C@@H](C(=O)N5CC(n6ccnc6)C5)N4C3=O)cc2c1 [Compound 214, ((((2-(((3S,6S,7aR, 8aS,9aR)-3-(3-(1H-imidazol-1-yl)azetidine-1-carbonyl)-5-oxodecahydro-1H-cyclopropa[d]pyrrolo[1,2-a]azocin-6-yl)carbamoyl)benzo[b]thiophen-5-yl)difluoromethyl)phosphoryl)bis(oxy)) bis(methylene) bis(2,2-dimethyl-propanoate)]
< 0.1 µM	0.1 to 1 µM	CC(C)(C)C(=O)OCOP(=O)(OCOC(=O)C(C)(C)C)C(F)(F)c1ccc2sc(C(=O)N[C@H]3C[C@H]4C[C@H]4C[C@H]4CC[C@@H](C(=O)NC5CN(C(=O)CCC(F)(F)F)C5)N4C3=O)cc2c1 [Compound 215, (((difluoro(2-(((3S,6S,7aR, 8aS,9aR)-5-oxo-3-((1-(4,4,4-trifluoro-butanoyl)azetidin-3-yl)carbamoyl)decahydro-1H-cyclopropa[d]pyrrolo[1,2-a]azocin-6-yl)carbamoyl)benzo[b]thiophen-5-yl)methyl)phosphoryl)bis(oxy)) bis(methylene) bis(2,2-dimethyl-propanoate)]
< 0.1 µM	> 3 µM	CC(C)(C)C(=O)SCCOP(=O)(OCCSC(=O)C(C)(C)C)C(F)(F)c1ccc2sc(C(=O)N[C@H]3C[C@H]4C[C@H]4C[C@H]4CC[C@@H](C(=O)N5CC(c6ccccn6)C5)N4C3=O)cc2c1 [Compound 218, S,S′-((((difluoro(2-(((3S,6S,7aR, 8aS,9aR)-5-oxo-3-(3-(pyridin-2-yl)azetidine-1-carbonyl)decahydro-1H-cyclopropa[d]pyrrolo[1,2-a]azocin-6-yl)carbamoyl)benzo [b]thiophen-5-yl)methyl)phosphoryl)bis(oxy))bis(ethane-2,1-diyl)) bis(2,2-dimethyl-propanethioate)]
< 0.1 µM	0.1 to 1 µM	CC(C)(C)C(=O)SCCOP(=O)(OCCSC(=O)C(C)(C)C)C(F)(F)c1ccc2sc(C(=O)N[C@H]3C[C@H]4C[C@H]4C[C@H]4CC[C@@H](C(=O)N5CC(c6c[nH]cn6)C5)N4C3=O)cc2c1 [Compound 219, S,S′-(((((2-(((3S,6S,7aR, 8aS,9aR)-3-(3-(1H-imidazol-4-yl)azetidine-1-carbonyl)-5-oxodecahydro-1H-cyclopropa[d]pyrrolo[1,2-a]azocin-6-yl)carbamoyl)benzo[b]thiophen-5-yl)difluoromethyl)phosphoryl)bis(oxy))bis(ethane-2,1-diyl)) bis(2,2-dimethyl-propanethioate)]
